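A five-concentration, 48-hour dose response in 96-well plates underlies each endpoint, interpolated linearly between surrounding concentrations. Definition used: TGI = concentration required for complete inhibition of growth.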
What was measured:
Experiment in all cases: NCI tumour cell line growth inhibition, 48 h
IGROV1 ovarian = system: IGROV1 ovarian
HL-60(TB) leukemia = system: HL-60(TB) leukemia
DLD-1 colon = system: DLD-1 colon
DMS 114 small cell lung = system: DMS 114 small cell lung
DMS 273 small cell lung = system: DMS 273 small cell lung
HOP-18 NSCLC = system: HOP-18 NSCLC
KM20L2 colon = system: KM20L2 colon
LXFL 529 NSCLC = system: LXFL 529 NSCLC
M19-MEL melanoma = system: M19-MEL melanoma
SNB-78 CNS = system: SNB-78 CNS
XF 498 CNS = system: XF 498 CNS

SMILES	TGI (IGROV1 ovarian) [µM]	TGI (HL-60(TB) leukemia) [µM]	further results
N#Cc1nc(CSCc2ccccc2)oc1N	> 100	–	–
Cc1nc2ccccc2c(=O)n1-c1n[nH]c2ccccc12	> 100	–	–
CCC[C@H](O)[C@@H](CNc1cc(NC(C)=O)nc(NC(C)=O)n1)N(Cc1ccccc1)Cc1ccccc1	50.9	–	–
C=C[C@@H](OCOCC[Si](C)(C)C)[C@@H](CC)OC(CCCOC(=O)C(C)(C)C)OC (stereo not given in full)	> 100	49.6	–
COc1ccc(-c2cnoc2-c2ccc(OC)c(OC)c2)cc1OC	9.53	2.88	TGI (DLD-1 colon): > 63.7 µM; TGI (DMS 114 small cell lung): 2.23 µM; TGI (DMS 273 small cell lung): 2.02 µM; TGI (HOP-18 NSCLC): > 59.5 µM; TGI (KM20L2 colon): > 22.4 µM; TGI (LXFL 529 NSCLC): > 100 µM; TGI (M19-MEL melanoma): 11.3 µM; TGI (SNB-78 CNS): > 26.8 µM; TGI (XF 498 CNS): 9.99 µM
COc1ccc(/C(CCl)=C(\Nc2ccccc2)c2ccc(OC)c(OC)c2)cc1OC	–	> 100	–
O=c1cc(CO)n(CCc2c[nH]c3ccccc23)cc1O	> 100	–	–
OC(CC(CC(O)(C(F)(F)Cl)C(F)(F)Cl)=NNc1ccccc1)(C(F)(F)Cl)C(F)(F)Cl	> 10	> 10	–
Cn1c(NN)nc(-c2ccc([N+](=O)[O-])cc2)c(C#N)c1=O	39.9	> 100	–
CCC(CC)C(=O)OC[n+]1ccc(-c2c(COC(=O)NC(C)C)c(COC(=O)NC(C)C)c3n2CCC3)cc1	> 100	> 100	–
CC1C2=C(CC(C)(C)CC2=O)NC2=C1C(=O)CC(C)(C)C2	> 100	> 100	–
COc1ccc(-c2cc(-c3ccc(Cl)cc3)n(C3OC(CO)C(O)C(O)C3O)c(=S)c2C#N)cc1 (stereo not given)	> 100	–	–
Nc1nc(N)c(C2=CCN(Cc3ccccc3)CC2)c(=O)[nH]1	> 100	> 100	–
COc1cc(C2S/C(=C/c3ccccc3)C(=O)N2c2cc(Cl)ccc2Cl)cc(OC)c1OC (stereo not given)	68.3	> 100	–
COc1ccc(OC)c([N+](=O)[O-])c1-c1nc2sccn2c1/C=N/N=C(N)N	> 100	> 100	–
NC(=O)c1cc(-c2ccc(-n3ccnc3)cc2)n[nH]c1=O	> 100	> 100	–
O=S(=O)(C(=Ic1ccccc1)S(=O)(=O)C(F)(F)C(F)(F)C(F)(F)C(F)(F)F)C(F)(F)C(F)(F)C(F)(F)C(F)(F)F	36.9	62	–
COc1ccc(C2=C(Cl)c3cc(OC)c(OC)cc3C2=O)cc1OC	32.1	> 100	–

SMILES	TGI (IGROV1 ovarian) [µM]	TGI (HL-60(TB) leukemia) [µM]	further results
Cc1c(/C=N/NC(=S)Nc2cccc(Cl)c2)c(=O)n(-c2ccccc2)n1C	42.4	> 100	–
CC1(c2cccc3c2C2(O)C=CC4(CCC32)OCCO4)OCCO1 (stereo not given)	> 100	> 100	TGI (DLD-1 colon): > 100 µM; TGI (DMS 114 small cell lung): > 100 µM; TGI (DMS 273 small cell lung): > 100 µM; TGI (HOP-18 NSCLC): > 100 µM; TGI (KM20L2 colon): > 100 µM; TGI (LXFL 529 NSCLC): > 100 µM; TGI (M19-MEL melanoma): > 100 µM; TGI (SNB-78 CNS): > 100 µM
COC(=O)Nc1nc2ccc(Oc3ccc4nc(NC(=O)OC)[nH]c4c3)cc2[nH]1	> 54.4	1.96	–
O[C@@]1(c2cccs2)c2cccc(Cl)c2[C@](O)(c2cccs2)c2cccc(Cl)c21	33	46.3	–
COc1ccc(N)c(C(O)CCNC(C)=O)c1 (stereo not given)	> 100	> 100	–
O=C1CSC(/C(=C/c2ccccc2)c2nc3ccccc3[nH]2)=N1	> 100	> 100	TGI (DLD-1 colon): > 100 µM; TGI (DMS 114 small cell lung): > 100 µM; TGI (KM20L2 colon): > 100 µM; TGI (LXFL 529 NSCLC): > 100 µM; TGI (M19-MEL melanoma): > 100 µM; TGI (SNB-78 CNS): > 100 µM; TGI (XF 498 CNS): > 100 µM
COC(=O)c1ccc(Oc2nc3ccccc3nc2-c2cccs2)cc1	> 100	> 100	–
O=S1(=O)NNC(=NCc2ccc(Cl)c(Cl)c2)c2ccccc21	> 100	> 100	TGI (DLD-1 colon): > 100 µM; TGI (DMS 114 small cell lung): > 100 µM; TGI (DMS 273 small cell lung): > 100 µM; TGI (HOP-18 NSCLC): > 100 µM; TGI (KM20L2 colon): > 100 µM; TGI (LXFL 529 NSCLC): > 100 µM; TGI (M19-MEL melanoma): > 100 µM; TGI (SNB-78 CNS): > 100 µM
Cc1cc(C)nc(NS(=O)(=O)c2ccc(NN=c3c4ccccc4n(C)c4ccccc34)cc2)n1	> 100	> 100	–
CCSc1c(C)c2c(n(Cc3ccc(OC)cc3)c1=O)Cc1ccccc1C2	54.2	31.6	–
CC1(C)CC(=O)/C(=C/C2CCNC2=S)C(=O)N1 (stereo not given)	> 100	> 100	–
Nc1ccc(-c2ncc3cc(-c4cccc(-c5cc6cnc(-c7ccc(N)cc7)nc6c6ccccc56)c4)c4ccccc4c3n2)cc1	> 100	–	–
CC1CC(C)[C@H](O)C([C@H](O)CC2CC(=O)N(C)C(=O)C2)C1 (stereo not given in full)	> 100	> 100	–
Cc1ccc(N/C(Sc2ccccc2)=C(/C(Cl)=C(Cl)Cl)[N+](=O)[O-])c(C)c1	40.2	56.2	–
Cc1nc(Cl)c(Cl)c(Cl)n1	0.344	0.0553	–
c1cc(-c2csc(-c3ccsc3)c2)cs1	> 100	> 100	–
C[C@]12CCC3c4ccc(O)cc4CC[C@H]3C1CC(=O)N(N)C2=O (stereo not given in full)	> 100	> 100	–

— PubChem BioAssay (NCI)
